{
  "source": "patent US6352715B1",
  "about": "“Transdermal rate-controlled delivery of Huperzine A for treatment of alzheimer's disease” (priority 1998, dated 2002)",
  "key": {"[1]": {"test": "Determination of pKa of Hup A by pH titration", "assay_type": "physicochemical", "conditions": "5×10^−4 M in water titrated with HCl", "experimental": "A solution of the Hup A was prepared in water to obtain a concentration of 5×10^−4 M solution. Hydrochloric acid solution 0.005M was prepared by dilution of concentrated acid. Similarly, a NaOH solution was prepared by diluting commercially available 1N solution.\nFor all titration, the procedure used was similar and is described below. The solution to be titrated was taken in a breaker and continually mixed using a magnetic stir bar. A pH electrode was used to measure pH of the solution during the experiments. The pH meter was connected to a computer, which was programmed to automatically obtain pH readings every 10 seconds. […]\nFirst, the HCL solution was standardized by titrating it with standard NaOH solution. This was carried out three times an d end point was determined from the inflection point using the titration profile. […]\nThe pH titration curve consists of […]: initial gradual decrease in pH as the base is slowly neutralized by the acid; middle region showing slow decrease in pH as excess acid is added to the solution. The pKa of the base is calculated from the initial region. The pH corresponding to midpoint of the initial part of the curve is the approximate pKa of the Hup A. Further, the exact pKa of Hup A was calculated by method described by Albert and Sergeant (1971), which is incorporated herein by reference. […]"}, "[2]": {"test": "pH/solubility profile in buffers", "assay_type": "physicochemical", "conditions": "37° C., 24 hours", "experimental": "In order to conserve the drug quantity being used, single point solubility determinations were carried out. Six different buffers were prepared in to determine the solubility of Hup A. The pH range chosen to study solubility is in 2 units above and 2 units below the pKa of the drug, i.e., 5 to 9. In addition, pH 7.4 was also selected to determine solubility at the physiological pH. To determine solubility, weighed amounts of Hup A were added to six different glass vials. In each vial, 1 ml of the respective buffer was added. The vials were tightly closed and kept in a shaking water bath maintained at 37° C. for 24 hours. At the end of such period, the supernatant solution was filtered through 0.22 um nylon filters into pre-warmed tubes. An aliquot of the filtrate was further diluted and analyzed by HPLC.\nIt can be seen that at pH 2 units above the pKa, i.e., at pH 9, the solubility of Hup A is the lowest. At low pH, i.e., at pH 5, the solubility of Hup A is seen to be high. This is expected as at pH 5, the drug predominantly exists as an ionized moiety with a single positive charge. These charged ions are hydrophilic and can be easily solubilized by water. At pH 9, the drug predominantly exists as an neutral moiety which is lipophilic, thus the solubility is low. The log of solubility as a function of solution pH is explained by the Henderson-Hasselback equation: […]"}, "rat cortex": {"test_system": "rat cortex", "conditions": "cited from earlier work"}, "patients": {"test_system": "patients", "conditions": "orally 0.2 mg (4 tablets, b.i.d) for 8 weeks; cited from earlier work"}, "[3]": {"test": "Partitioning of Hup A into n-octanol from buffers of different pH", "assay_type": "physicochemical", "conditions": "48 hrs", "experimental": "The buffers used to prepare solutions of Hup A for the partitioning study were the same as those used in the solubility studies, i.e., isotonic phosphate buffers with pH 5, 6, 7, 7.4, 8 and 9. Initially, 100 ml of n-octanol was mixed with 100 ml of phosphate buffers and placed in shaking water bath at 37° C. for 24 hours to saturate the n-octanol with buffer prior to study. Then the n-octanol was separated from the buffer using a separating funnel.\nSolutions of Hup A (about 150 ug/ml concentration) were prepared separately in each of the six buffers. Then 1 ml each of each buffers was pipetted to three test tube. To these test tubes, 1 ml of the n-octanol was added. Controls were set up consisting only of buffer solutions without n-octanol to account for changes in concentration due to evaporation of buffer or degradation of drug if present. The tubes were sealed and placed in a shaking water bath at 37° C. for 48 hrs. Samples of 100 ul each were taken from both the n-octanol layer and the buffer layer and analyzed by HPLC. Partition coefficients were determined from the ratio of concentration of Hup A in n-octanol to that in buffer.\nIt appears that at high pH, when Hup A exists predominantly as a neutral moiety, the partition coefficient is high. As the pH is reduced the fraction of the unionized moiety decreases and so does the partition coefficient. At pH 5, when Hup A exists predominantly as a ionized moiety the partition coefficient is below 1, indicating high affinity of the drug for the buffer phase."}, "[4]": {"test": "In vitro permeation of Hup A through human cadaver skin from donor solutions (Valia-Chien permeation cell)", "assay_type": "in vitro ADME", "conditions": "for Permeation arate: receptor pH 7.4; for Permeability × 10^3: values × 10^3", "experimental": "Human cadaver skin is employed as model for studying in vitro transdermal permeation of Hup A. The skin specimens of human cadavers, obtained from Ohio Valley Skin & Tissue Center, are mounted between the two half cells of Valia-Chien Permeation Cell. Donor solutions were prepared in isotonic phosphate buffers of pH 5, 6, 7, 7.4, 8 and 9. Concentration of each solution was about 750 ug/ml. Permeation studies were carried out in triplicate at each pH evaluated. The receptor solution used in each case was isotonic phosphate buffer pH 7.4 to simulate physiological conditions.\nAs stated above human cadaver skin was used in the permeation studies. The skin, obtained frozen, was first thawed and rinsed with in normal saline. The skin was then blotted to remove excess moisture and cut into 2 cm×2 cm pieces. Each skin piece was sandwiched between two microscope glass slides and the thickness was measured using a micrometer. These skin pieces were then mounted between the two half-cell of Valia-Chien permeation cells, with the stratum corneum facing the donor half-cell. The respective donor and receptor solutions were added (3.3 ml each). Samples of 100 ul each were taken from the receptor compartment at various intervals up to 48 hours and were analyzed by HPLC. The volume of receptor compartment was replaced with fresh isotonic phosphate buffer after each sample. At end of 48 hours, a single aliquot was taken from the donor compartment and analyzed after suitable dilution to evaluate the amount of Hup A lost from the donor in 48 hours.\nThe rate of Hup A permeation is determined based on the general formula for the determination of the rate of permeation of a drug across a membrane as illustrated by the following equation (1): [formula]\nSink conditions were maintained throughout the permeation study i.e. Cd>>Cr. Permeability can be calculated using solubility of Hup A as the saturation concentration in donor cell (Cd). [formula]\nIntrinsic permeability was calculated by correlating the permeability with the thickness of the skin:\nWherein P=intrinsic permeability and h=thickness in cm.\nGenerally speaking, higher the partitioning of the drug into the skin, higher the permeation will be. The pH-dependent partitioning behavior of Hup A is seen to be reflected in its skin permeation profiles. The intrinsic permeability-pH profiles of Hup A (FIG. 5) is similar to that observed for partition coefficient-pH relationship (FIG. 3). Again, a sigmoidal relationship is observed. Further, the amount lost from the donor solution, which corresponds to the sum of the amount permeated and the amount retained in the skin, was also seen to follow similar relationship (FIG. 6)."}, "[5]": {"test_system": "rat embryo hippocampus and cerebellum cultured cells", "conditions": "cited from earlier work"}, "[6]": {"conditions": "single oral dose of 0.99 mg, six volunteers; cited from earlier work"}},
  "data": [
    {"smiles": "C/C=C1\\[C@H]2C=C(C)C[C@]1(N)c1ccc(=O)[nH]c1C2", "note": "[Hup A, Huperzine A]", "values": [
      {"measurement": "pKa", "setting": "[1]", "value": "6.97 (+/−0.06)"},
      {"measurement": "Solubility", "setting": "[2]; pH 5 buffer", "value": "6.225 (0.153) mg/ml"},
      {"measurement": "Solubility", "setting": "[2]; pH 6 buffer", "value": "4.639 (0.001) mg/ml"},
      {"measurement": "Solubility", "setting": "[2]; pH 7 buffer", "value": "2.123 (0.042) mg/ml"},
      {"measurement": "Solubility", "setting": "[2]; pH 7.4 buffer", "value": "1.325 (0.042) mg/ml"},
      {"measurement": "Solubility", "setting": "[2]; pH 8 buffer", "value": "1.201 (0.017) mg/ml"},
      {"measurement": "Solubility", "setting": "[2]; pH 9 buffer", "value": "1.044 (0.018) mg/ml"},
      {"measurement": "permeation through the blood-brain barrier", "setting": "rat cortex; rat, in vivo", "value": "able to permeate through the blood-brain barrier"},
      {"measurement": "Ach, norepinephrine and dopamine in rat cortex", "setting": "rat cortex; systemic or local administration", "value": "dose-dependent increase"},
      {"measurement": "patients with significant improvement in memory, cognition and behavior", "setting": "patients", "value": 58, "unit": "%"},
      {"measurement": "side effects", "setting": "patients", "value": "without causing any severe side effects"},
      {"measurement": "Partition Coefficient", "setting": "[3]; n-octanol/buffer pH 6, 37° C.", "value": "1.681 (0.010)"},
      {"measurement": "Partition Coefficient", "setting": "[3]; n-octanol/buffer pH 7, 37° C.", "value": "11.376 (0.415)"},
      {"measurement": "Partition Coefficient", "setting": "[3]; n-octanol/buffer pH 7.4, 37° C.", "value": "18.359 (0.294)"},
      {"measurement": "Partition Coefficient", "setting": "[3]; n-octanol/buffer pH 8, 37° C.", "value": "24.063 (0.515)"},
      {"measurement": "Partition Coefficient", "setting": "[3]; n-octanol/buffer pH 9, 37° C.", "value": "27.463 (0.131)"},
      {"measurement": "Permeation arate", "setting": "[4]; donor pH 5, about 750 ug/ml", "value": "0.776 (0.029) ug/cm^2/hr"},
      {"measurement": "Permeability × 10^3", "setting": "[4]; donor pH 5", "value": "1.026 (0.038) cm/hr"},
      {"measurement": "Permeation arate", "setting": "[4]; donor pH 6, about 750 ug/ml", "value": "0.213 (0.088) ug/cm^2/hr"},
      {"measurement": "Permeability × 10^3", "setting": "[4]; donor pH 6", "value": "0.290 (0.119) cm/hr"},
      {"measurement": "Permeation arate", "setting": "[4]; donor pH 7, about 750 ug/ml", "value": "0.633 (0.225) ug/cm^2/hr"},
      {"measurement": "Permeability × 10^3", "setting": "[4]; donor pH 7", "value": "0.846 (0.300) cm/hr"},
      {"measurement": "Permeation arate", "setting": "[4]; donor pH 7.4, about 750 ug/ml", "value": "0.759 (0.368) ug/cm^2/hr"},
      {"measurement": "Permeability × 10^3", "setting": "[4]; donor pH 7.4", "value": "1.007 (0.489) cm/hr"},
      {"measurement": "Permeability × 10^3", "setting": "[4]; donor pH 8", "value": "4.434 (1.7050) cm/hr"},
      {"measurement": "Permeation arate", "setting": "[4]; donor pH 9, about 750 ug/ml", "value": "5.082 (2.162) ug/cm^2/hr"},
      {"measurement": "Permeability × 10^3", "setting": "[4]; donor pH 9", "value": "6.118 (2.603) cm/hr"},
      {"measurement": "death of neuronal cell caused by toxic levels of glutamate", "setting": "[5]", "value": "decreases the death of neuronal cell"},
      {"measurement": "pharmaco-kinetics evaluation", "setting": "[6]", "value": "absorbed rapidly, distributed widely in the body, and eliminated at a moderate rate"}
    ]}
  ]
}
